Test system: Drosophila melanogaster (Oregon wild strain)
Test: Life extending experiments with Drosophila (lifespan study)
Assay type: in vivo
Conditions: for Mean Lifespan: from age of 15 days on
Description: Drosophila melanogaster (Oregon wild strain) were used for lifespan study. Flies were reared in a light/dark cycle of 12:12 hours at a temperature of 25° C. and 65% relative humidity. Drosophila were fed with a standard medium consisting of 170 g of corn flour, 15 g of agar, 15 g of yeast, 10 ml of 100% propionic acid, 130 g of sucrose, and 2000 ml of water.
One-day-old Drosophila were transferred to plastic vials (25×100 mm) containing 2 ml of the diet medium, which was replaced every 3 days. 10 flies from each gender were kept in one vial. Hydroxytyrosol was provided in the diet to Drosophila from age of 15 days on. The Drosophilae were counted every 3 days until all flies died. Survivals were calculated at the end of the experiments after correcting total loss incurred from handling (Phillips J P, Campbell S D, Michaud D, Charbonneau M, Hilliker A J, Proc Natl Acad Sci USA. 1989, 86(8), 2761-2765: “Null mutation of copper/zinc superoxide dismutase in Drosophila confers hypersensitivity to paraquat and reduced longevity.”). The mean lifespan was calculated according to the method described by Cui X, Dai X G, Li W B, Zhang B L, Fang Y Z in Am. J. Chin. Med. 1999, 27(3-4), 407-413: “Effects of lu-duo-wei capsule on prolonging life span of housefly and Drosophila melanogaster.”

## OCCc1ccc(O)c(O)c1 [Hydroxytyrosol, 3,4-dihydroxyphenylethanol]
1 mg/100 g in the diet
  % Increase of lifespan compared to control: 8.23%
  Mean Lifespan: 75.14 days
5 mg/100 g in the diet
  % Increase of lifespan compared to control: 11.55%
  Mean Lifespan: 77.44 days
10 mg/100 g in the diet
  % Increase of lifespan compared to control: 3.89%
  Mean Lifespan: 72.12 days
20 mg/100 g in the diet
  % Increase of lifespan compared to control: 6.97%
  Mean Lifespan: 74.26 days
50 mg/100 g in the diet
  % Increase of lifespan compared to control: 4.02%
  Mean Lifespan: 72.21 days
Male Drosophila, 5 mg/100 g diet
  lifespan extension (best effect): 11.5%

From US20100113612A1, “NOVEL USE OF HYDROXYTYROSOL AND OLIVE EXTRACTS/CONCENTRATE CONTAINING IT” (priority 2007, published 2010)
